According to WO2016116777A1, “Compositions and methods for treatment of chronic lymphocytic leukemia and small lymphocytic leukemia using a btk inhibitor” (dated 2016):
Entries after “also recorded” stand apart in the source; their conditions may differ.

How the values were obtained:
[1] = test system: human platelet-mediated thrombosis; test: In vivo human platelet thrombus formation in VWF HA1 mutant mice (laser injury)
[2] = test system: NK cells (CD56+/CD107a+) with MEC-1 cells; test: NK cell degranulation/ADCC whole blood assay with obinutuzumab-opsonised MEC-1 cells; type: cell-based, human; details: 0.1, 1 and 10 μM, MEC-1 opsonised with obinutuzumab 1 μg/mL, 4 hours
[3] = test system: Th17 cells; test: Effect on Th17 cells
[4] = test system: regulatory T cell (Treg); test: Effect on Treg development
[5] = test system: B cell receptor; test: In vitro potency in whole blood, inhibition of signals through the B cell receptor (CD69); type: cell-based; details: whole blood from four healthy donors, 2 hours incubation, anti-human IgD 18 hours, read-out: EC50, CD69 on gated CD19+ B cells
[6] = test system: NK cells; details: cited from earlier work
[7] = test system: cytochrome P450 (CYP) enzymes 3A4/5 and 2D6; details: cited from earlier work
[8] = target: epidermal growth factor receptor (EGFR) (Homo sapiens, UniProt P00533); details: in vitro; cited from earlier work
[9] = test system: CD8+ T cell; test: Effect on CD8+ T cell viability
[10] = test system: platelet collagen receptor glycoprotein VI (GPVI); test: GPVI platelet aggregation; type: cell-based, human
[11] = target: T1, interleukin-2 inducible tyrosine kinase (ITK) (Homo sapiens, UniProt Q08881); details: cited from earlier work
T1 sequence (Q08881 1-620): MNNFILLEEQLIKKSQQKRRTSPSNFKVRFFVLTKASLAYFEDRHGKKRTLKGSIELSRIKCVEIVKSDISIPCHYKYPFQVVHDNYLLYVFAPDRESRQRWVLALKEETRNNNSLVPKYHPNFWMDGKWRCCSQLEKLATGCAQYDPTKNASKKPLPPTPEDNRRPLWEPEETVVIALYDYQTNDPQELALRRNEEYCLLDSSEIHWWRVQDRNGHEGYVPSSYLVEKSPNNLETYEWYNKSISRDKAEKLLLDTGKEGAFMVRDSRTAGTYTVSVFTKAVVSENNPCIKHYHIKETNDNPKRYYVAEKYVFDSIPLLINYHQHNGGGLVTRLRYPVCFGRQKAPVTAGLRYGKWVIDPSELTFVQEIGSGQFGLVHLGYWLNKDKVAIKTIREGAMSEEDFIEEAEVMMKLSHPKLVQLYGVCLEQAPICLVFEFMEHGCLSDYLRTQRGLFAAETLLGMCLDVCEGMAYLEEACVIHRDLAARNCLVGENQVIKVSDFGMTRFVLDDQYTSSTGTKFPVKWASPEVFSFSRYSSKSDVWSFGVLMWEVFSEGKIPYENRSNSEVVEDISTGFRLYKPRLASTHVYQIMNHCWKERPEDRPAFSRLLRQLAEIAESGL

[12] = test system: CLL; details: cited from earlier work
[13] = Phase 1, previously treated CLL, monotherapy
[14] = Phase 1 portion, relapsed/refractory CLL, n=13

Sequence of epidermal growth factor receptor (EGFR) (P00533 25-1210): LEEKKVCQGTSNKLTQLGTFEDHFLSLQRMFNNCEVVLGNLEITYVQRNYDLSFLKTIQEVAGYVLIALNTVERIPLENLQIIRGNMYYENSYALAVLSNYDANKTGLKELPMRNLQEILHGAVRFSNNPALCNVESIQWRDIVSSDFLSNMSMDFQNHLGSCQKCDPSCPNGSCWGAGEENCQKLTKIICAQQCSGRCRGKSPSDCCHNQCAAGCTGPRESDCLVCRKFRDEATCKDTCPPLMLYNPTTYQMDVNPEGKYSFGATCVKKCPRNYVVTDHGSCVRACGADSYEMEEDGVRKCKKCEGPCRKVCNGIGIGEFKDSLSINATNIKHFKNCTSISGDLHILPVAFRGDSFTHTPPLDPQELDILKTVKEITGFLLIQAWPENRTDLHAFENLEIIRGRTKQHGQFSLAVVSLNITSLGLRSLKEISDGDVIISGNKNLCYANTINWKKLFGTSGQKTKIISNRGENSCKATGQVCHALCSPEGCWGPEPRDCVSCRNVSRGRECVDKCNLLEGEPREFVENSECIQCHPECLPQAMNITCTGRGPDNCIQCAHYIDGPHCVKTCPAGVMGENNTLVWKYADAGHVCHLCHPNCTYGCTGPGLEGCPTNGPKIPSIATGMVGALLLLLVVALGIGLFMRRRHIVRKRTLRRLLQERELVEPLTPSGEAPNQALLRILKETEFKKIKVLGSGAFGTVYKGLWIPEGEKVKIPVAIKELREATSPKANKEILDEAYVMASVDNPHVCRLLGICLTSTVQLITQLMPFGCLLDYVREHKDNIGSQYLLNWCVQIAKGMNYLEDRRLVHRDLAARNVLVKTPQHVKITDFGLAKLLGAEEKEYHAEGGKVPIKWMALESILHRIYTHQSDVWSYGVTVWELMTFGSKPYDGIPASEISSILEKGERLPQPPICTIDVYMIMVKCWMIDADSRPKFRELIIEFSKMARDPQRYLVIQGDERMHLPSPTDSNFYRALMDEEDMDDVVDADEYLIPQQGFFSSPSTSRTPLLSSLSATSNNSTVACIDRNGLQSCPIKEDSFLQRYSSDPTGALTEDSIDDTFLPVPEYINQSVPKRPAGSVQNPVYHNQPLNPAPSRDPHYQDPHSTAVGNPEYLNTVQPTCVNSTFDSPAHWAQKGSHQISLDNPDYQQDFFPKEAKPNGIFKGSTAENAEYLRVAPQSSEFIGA

## C=CC(=O)Nc1cccc(Nc2nc(Nc3ccc(OCCOC)cc3)ncc2F)c1 [CC-292]
[1]
  effect on human platelet-mediated thrombus formation: interfere with thrombus formation; also recorded: effect similar to ibrutinib

## C=CC(=O)N1CCC[C@@H](n2nc(-c3ccc(Oc4ccccc4)cc3)c3c(N)ncnc32)C1 [ibrutinib]
[2]
  percentage of CD56+/CD107a+ NK cells / antagonism: strong reduction
[3]
  effect on Th17 cells: strongly inhibits Thl7 cells; also recorded: profound inhibition
[4]
  effect on Treg development: strongly increases Treg development; also recorded: increase in Treg development
[5]
  EC50: 6.1 nM
[6]
  effect on rituximab ADCC mediated by NK cells: antagonizes rituximab antibody-dependent cell mediated cytotoxicity (ADCC); also recorded: undesirably antagonizes rituximab ADCC effects
[7]
  CYP substrate: substrate for both cytochrome P450 (CYP) enzymes 3A4/5 and 2D6
[8]
  EGFR inhibition: inhibits epidermal growth factor receptor (EGFR)
[9]
  effect on CD8+ T cell viability: strongly affects CD8 T cell viability at higher doses; also recorded: strong, negative effect
[10]
  GPVI platelet aggregation: significantly inhibits GPVI platelet aggregation
[10]; Homo sapiens, Platelet
  IC50: 130 nM
[11]
  ITK binding: irreversibly binds ITK

## obinutuzumab: humanized monoclonal antibody directed against CD20
[12]; [13]
  MRD-negative complete response, number: 1
  response rate: 62%
[12]; [14]
  patients with Grade 3 IRRs: 15%
  patients with Grade 4 IRRs: no Grade 4
  patients with IRRs, all grade: 100%
[12]; Phase 2 portion, relapsed/refractory CLL
  patients developing IRR: 95%
[12]; Phase 2 portion
  Grade 3 reactions among those: 25%
  cases developing symptoms of hypotension: 60%
